The target of this assay is T1, PAN domain endonuclease (Influenza A virus, UniProt C3W5S0).
T1 construct: The PAN domain of 2009 pandemic H1N1 virus polymerase (residues 1-204) has now been crystallized
Kind of assay: Endonuclease inhibition assay (FRET, FAM/MGBNFQ TaqMan-like probe cleavage by PAN). In kind it is biochemical, influenza A (2009 pandemic H1N1 virus). The note with it: 25 nM endonuclease, 50 nM probe, 37 degrees Celsius, fluorescence ex 488 nm / em 518 nm. An excerpt:
A TaqMan-like oligonucleotide was used containing a 6-carboxy-fluorescein (FAM) fluorophore at the 5′-end followed by 19 nucleotides and a minor groove binding non-fluorescent quencher (MGBNFQ, Applied Biosystems) at the 3′-end. When excited by light at a wavelength of 488 nm, MGBNFQ quenches the fluorescence of FAM via fluorescence resonance energy transfer. If the endonuclease cleaves the oligonucleotide, the quencher is no longer coupled to the fluorophore, and therefore, FAM fluoresces. This assay can be performed in a high-throughput (e.g. 96 well plate) format. The assay can be used to evaluate the inhibitory characteristics of compounds that are found to bind PAN and to screen libraries of drug-like compounds. The assay uses the probe 6FAM-[…]-MGBNFQ (SEQ ID NO: 1)
The assay can be performed in a 40 μl reaction volume with 50 mM Tris pH 7.5, 50 mM NaCl, 1 mM MgSO4, 0.5 mM MnSO4, 1 mM DTT, 0.75 mM CHAPS, 50 nM probe, and 25 nM endonuclease.
The reaction mixture is set up as a master mix with the buffer, probe, and protein on ice. The inhibitor is then added to a maximum DMSO concentration of 2.5% (v/v) and serial dilutions are made on ice. Varioskan Fluorometer (Thermo Scientific), set to an excitation of 488 nm and emission of 518 nm, is used to measure the fluorescence of the samples at 37 degrees Celsius. Fluorescence is measured at various time points (5, 120, and 240 minutes) during the 37 degrees Celsius incubation. Activity/inhibition is calculated based on the change in fluorescence over time using Prism Graphpad non-linear regression analysis.

The IC50 is the point on the concentration scale where inhibition reaches its midpoint.

Compound `Oc1cc(-c2ccc(F)cc2)c(-c2ccc(F)cc2)cc1O` [Example 1] gave an IC50 of 390 nM.

On to `O=[N+]([O-])c1c(O)c(O)cc(-c2ccc(F)cc2)c1-c1ccc(F)cc1` [Example 2], for which the IC50 is 434 nM.

The compound `N#Cc1ccc(-c2cc(O)c(O)cc2-c2ccc(C#N)cc2)cc1` [Example 3, 4′,5′-dihydroxy-[1,1′:2′,1″-terphenyl]-4,4″-dicarbonitrile] yielded a concentration for half-maximal inhibition (IC50) of 395 nM.

For `N#Cc1ccc(-c2cc(O)c(O)c([N+](=O)[O-])c2-c2ccc(C#N)cc2)cc1` [Example 4], the IC50 was 194 nM.

For the compound `N#Cc1ccc(-c2cc(O)c(O)cc2-c2ccc(F)cc2)cc1` [Example 5, 4″-fluoro-4′,5′-dihydroxy-[1,1′:2′,1″-terphenyl]-4-carbonitrile], the IC50 is 290 nM.

Regarding `Oc1cc(-c2ccc(F)cc2)c(-c2ccc(-c3nnn[nH]3)cc2)cc1O` [Example 6], 425 nM corresponded to half-maximal inhibition (IC50).

Compound `Oc1cc(-c2ccc(-c3nnn[nH]3)cc2)c(-c2ccc(-c3nnn[nH]3)cc2)cc1O` [Example 7] yielded an IC50 of 847 nM.

(Values after US9695135B2, “Therapeutic catechols” (priority 2014, dated 2017).)
